Experimental data published in US20260137697A1, “THIAZOLO[5,4-D]PYRIMIDINE COMPOUNDS, COMPOSITIONS COMPRISING THEM AND USES THEREOF” (University de Montreal, priority 2022, published 2026).
Like-named read-outs stand apart in the source and are kept apart here.

Columns and labels:
pERK, Lovo cells = test: Phospho-ERK inhibition, AlphaLISA p-ERK 1/2, Lovo; format: cell-based, human; settings: Table D-2; for IC50: Lovo (KRAS-G13D); for pERK value in parentheses, % inhibition (Ymin): Lovo, lowest point of IC50 curve
Experimental: (§1) All cancer cell lines (A375, A101D, A2058, RKO, HT29 SK-MEL 30, IPC298, HepG2, HCT-116, Lovo, SW620, SW480, NCI-H358, NCI-H2122, Calu-6, NCIH2087, NCIH1755, NCIH1666 and Mewo) were obtained from ATCC and cultured in RPM1-1640 medium (Gibco) supplemented with 5% heat inactivated fetal bovine serum (FBS, Wisent) at 37° C. under 5% CO2. Cells were maintained in T175 flasks (Greiner). They were passaged by removing the culture medium, washing once in 10 mL of room temperature Phosphate Buffered Saline (PBS; Wisent) and incubating at 37° C. with 2 mL of 0.05% Trypsin (Thermo-Fisher). Trypsin was then inactivated by adding complete growth medium and the cells were then replated in a T175 culture dish at the appropriate dilution. All cell lines were routinely tested for mycoplasma contamination. Tissue type and mutational status of each cell line can be found in Table B.
(c) Measurement of Phospho-ERK Inhibition in Cultivated Human Cancer Cell Lines by the AlphaLISA® SureFire® Ultra™ p-ERK 1/2 (Thr2O2/Tyr204)
AlphaLISA® SureFire® Ultra™ p-ERK 1/2 (Thr202/Tyr204) analysis was conducted on cells plated in 100 μL of complete RPMI-1640 growth medium in 96-well flat-bottomed transparent dishes (Costar) at a density indicated in Table C. Cells were maintained overnight at 37° C. under 5% CO2 before treatment with compounds' dilution series for one hour. The cell density in cells/cm^2 corresponds to cell number divided by the area of one well of a 96-well plate (0.143 cm^2).
In a dilution series 100 μL/well of test substance dilution prepared in complete RPMI-1640 growth media was added to the cells. The dilution series is selected so that ten concentrations cover a range from 10 μM to 0.33 nM. If necessary, the initial concentration of 10 μM is increased to 100 μM or lowered to 1 μM (as in the case of A375 and H1666 cells, which are generally more sensitive to the compounds) and further dilution is carried out accordingly. The final concentration of DMSO in the assay is set at 0.5%.
After treatment, media was removed, and cells were lysed in 50 μL of 1× AlphaScreen Ultra Lysis Buffer (Perkin Elmer). The AlphaLISA® SureFire® Ultra™ p-ERK 1/2 (Thr202/Tyr204) (PerkinElmer) reactions were performed with 5 μL of cell lysate according to the manufacturer's specifications in 384-well proxyplates (Perkin Elmer) followed by overnight incubation of the reactions at room temperature in a humidified chamber. After completion of the reactions, the signals were recorded on an EnVision plate reader (Perkin Elmer) using built in AlphaLISA® settings.
The effect of each compound dilution on the pERK signal was expressed in % inhibition and calculated as follows. An internal 100% inhibition control (1 μM trametinib, cat. No. HY-10999; MedChem Express; CAS No. 871700-17-3) was included in each plate and used as a measure of pERK background. First, the value obtained for trametinib was subtracted from each data point. The average of DMSO (vehicle) controls (set as 0% inhibition) was established and used to calculate % inhibition:
(§2) The ability of each compound to inhibit pERK signal was expressed as an IC50 value obtained by plotting the inhibition values for each data point of a dilution series and fitting the obtained curves using a log(agonist) versus response—variable slope (four parameters) function using GraphPadPrism (V7.0) or Dotmatics Screening Ultra platform.
When present, paradoxical pERK induction is inferred from the negative % inhibition values observed in the pERK IC50 curves of a compound.

SW480 cells = test: Proliferation inhibition, CellTiter-Glo, SW480; format: cell-based, human; settings: Table D-2, SW480 (KRAS G12D), 3 days, read-out: Prolif. (proliferation EC50)
Experimental: as §1
CellTiter-Glo® viability analysis was conducted on cells plated in 100 μL of complete RPMI-1640 growth medium in 96-well flat-bottomed white opaque plates (Greiner or Croning) at a density indicated in Table E (for each CCL, number of cells plated per well of a 96-well plate to perform the CellTiter-Glo® cell viability assay). The cell density in cells/cm^2 would correspond to cell number divided by the area of one well of a 96-well plate (0.32 cm^2). […]
After 3 days of incubation, the growth media were removed by aspiration and 60 μL of diluted CellTiter-Glo® reagent (10 μL CellTiter-Glo® reagent+50 μL of PBS) was added to each well. […] Luminescence signals were then acquired on a Synergy Neo2 plate reader (Biotek).
The effect of each compound dilution on the proliferation of cancer cell lines was expressed in % inhibition and calculated as follows. […]
as §2, with “proliferation” for “pERK signal”, “a EC50” for “an IC50”, “effect” for “inhibition”

IC50 (pERK, Lovo cells; Homo sapiens) | EC50 (SW480 cells; Homo sapiens, 72 h) | IC50 (pERK, Lovo cells) | EC50 (SW480 cells) | SMILES | pERK value in parentheses, % inhibition (Ymin) (pERK, Lovo cells)
< 30 nM | 300 to 3000 nM | – | – | Cc1ccc2c(Nc3cccc(Cl)c3F)nccc2c1NC(=O)c1csc2c(N)ncnc12 [Belvarafenib, reference compound] | (−12) %
– | – | 30 to 300 nM | < 300 nM | Cc1c(F)cccc1S(=O)(=O)Nc1ccc(F)c(Nc2ncnc3sc(-n4cc(C(=O)N5C6CCC5CN(C)C6)c5ccccc54)nc23)c1F [Example 44] | (−10) %
– | – | 30 to 300 nM | < 300 nM | N#CC1(c2cccc3c2ncn3-c2nc3c(Nc4c(F)ccc(NS(=O)(=O)c5cccc(Cl)c5Cl)c4F)ncnc3s2)CC1 [Example 122] | (13) %
